For data set [1], the system named is dopaminergic and serotonergic neurotransmission. The following applies: in vivo microdialysis; cited from earlier work.
Data set [2] deals with GABA/benzodiazepine receptor ionophore complex. The following applies: in vitro, cited from earlier work.
The conditions of data set [3]: in vivo; cited from earlier work.
A further data set deals with T-type Ca^2+ currents. The following applies: in vitro; cited from earlier work.
The next data set concerns rat hippocampal slices. The following applies: 10-30 μg/mL; cited from earlier work.
A short description of data set [4]: Pharmacovigilance review of rhabdomyolysis / CPK elevation in zonisamide-treated patients (U.S. and Japan). The following applies: human, in vivo. The text has this:
The pharmacovigilance data that were collected, reviewed and analyzed provided the following information in respect of the incidence of rhabdomyolysis/CPK elevation in the zonisamide-treated patient population. To date, a total of 10 cases fulfill the criteria of potential rhabdomyolysis cases. These 10 cases were reviewed in detail for evaluation of possible safety signals. All 10 cases fulfill serious criteria. Of these 10 cases, seven (7) cases were reported as rhabdomyolysis and three (3) cases were reported as CPK increase.
Of the seven (7) rhabdomyolysis cases, six (6) are verbatim cases from Dainippon and one (1) originates in the U.S. Of the seven (7) cases, three (3) were pediatric cases and four (4) were adult cases.
Of the seven (7) rhabdomyolysis cases, two (2) cases have strong confounding factors, but the possibility of zonisamide involvement cannot be completely excluded. Two (2) cases have moderate confounding factors, and zonisamide involvement may be possible.
Of the three (3) cases of CPK increase, one (1) is a verbatim report from Dainippon, and two (2) originated from the U.S. Of the three (3) cases, two are pediatric patients and one is an adult. Of these three (3) cases, two (2) recovered and the outcome of the third is unknown.
Of the three (3) cases of CPK increase, one (1) case has strong confounding factors, but the possibility of zonisamide involvement cannot be completely excluded. One (1) case has weak confounding factors, and zonisamide involvement may be possible.
Estimates of zonisamide exposure, based upon retail and mail order prescriptions, indicate that the number of unique patients taking zonisamide capsules in the U.S. is about 37,276 (total prescriptions per year/average number of prescriptions per patient per year less a calculated percentage decrease based on estimated annual dropouts) in the time between approval in 2000 and December 2002. Hospital patient data for that period, however, is not available and is not reflected in the estimates. Estimates of patient exposure for Japan indicate that the number of unique patients taking zonisamide is about 1,185,177 for time beginning with the approval in Japan through December 2002. Japanese data includes prescription and hospital patient data. Exposure from clinical trials are not included in the U.S. or Japanese exposure estimates. Based on these statistics, the estimated number of patients exposed to zonisamide in the U.S. and Japan is 1,222,453 unique patients. This is a rather conservative estimate, assuring that the number of patients actually exposed to zonisamide is unlikely to be higher than the estimate provided. Similarly, the incidences of rhabdomyolysis estimated herein are unlikely to be higher than calculated. […]

In data set [5] the test system is cultured mouse spinal cord neurons. The following applies: 10-30 μg/mL, cited from earlier work.

Structures are written as SMILES.

In the case of `NS(=O)(=O)Cc1noc2ccccc12` [zonisamide, 1,2-benzisoxazole-3-methanesulfonamide], the “effect on dopaminergic and serotonergic neurotransmission” value in data set [1] was “facilitates both dopaminergic and serotonergic neurotransmission”. In data set [2] (allosteric fashion), the “binding to the GABA/benzodiazepine receptor ionophore complex” value was “binds to the GABA/benzodiazepine receptor ionophore complex”. The “effect on chloride flux” value in data set [2] was “does not produce changes in chloride flux”. For the same molecule, the “doses at which many of the side effects are more frequent” value in data set [3] was ≥ 300 mg per day. Further, in the data set with T-type Ca^2+ currents, the “effect on voltage-dependent, transient inward currents (T-type Ca2+ currents)” value is “reduces voltage-dependent, transient inward currents”. Besides, the “effect on neuronal or glial uptake of [3H]-GABA” value with rat hippocampal slices is recorded as “without affecting”. For the same molecule, in data set [4], the “CPK increase cases with no or only weak confounding factors” value amounted to 2 cases; the “rhabdomyolysis cases with no or only weak confounding factors” value turned out to be 3 cases; the “time from initiation of zonisamide treatment to development of CPK increase” value is “two (2) days and six (6) weeks”; the “time from initiation of zonisamide treatment to development of rhabdomyolysis” value is “two (2) weeks and nine (9) years”. Also, the “effect on synaptically-driven electrical activity” value in data set [5] is “suppresses synaptically-driven electrical activity”. The “effect on postsynaptic GABA or glutamate responses” value in data set [5] (cultured mouse spinal cord neurons) is “without affecting”.

Source of the values: US20050154035A1, “Methods of using zonisamide as an adjunctive therapy for partial seizures” (Eisai Co., Ltd., priority 2004, published 2005).
